The assay concerns the target T1, δ opioid receptors (Mus musculus, UniProt P32300).
T1 construct: Bioassays Using Isolated Organ Preparations; from tissue; host or cells: mouse vas deferens (isolated organ)
In words: Mouse vas deferens (MVD) bioassay, antagonism of electrically evoked contraction inhibition by δ-selective agonists. The format is tissue-based. To be noted: MVD assay, means of 3-8 determinations. The text has this: a) Biosassys based on inhibition of electrically evoked contractions of the mouse vas deferens (MVD) and of the guinea pig ileum (GPI). In the GPI assay the opioid effect is primarily mediated by μ opioid receptors, whereas in the MVD assay the inhibition of the contractions is mostly due to interaction with δ opioid receptors.
The GPI and MVD bioassays were carded out as reported in P. W. Schiller et al., Biochem. Biophys. Res. Commun 85, 1332-1338 (1978) and J. Di Maio et al., J. Med. Chem. 25, 1432-1438 (1982). A log dose-response curve was determind with [Leu^5 ]enkephalin as standard for each ileum and vas preparation, and IC50 values of the compounds being tested were normalized according to A. A Waterfield et al., Eur. J. Pharmacol. 58, 11-18 (1979). […] These determinations were made with the MVD assay, using three different δ-selective agonists ([Leu^5 ] enkephalin, DPDPE and [D-Ala^2 ]deltorphin I].

Where [1] appears, read: Ke (nM) against DPDPE, δ agonist DPDPE.
Setting [2] is: Ke (nM) against [D-Ala2]deltorphin I, δ agonist [D-Ala2]deltorphin I.
Setting [3] is: Ke (nM) against [Leu5]Enkephalin, δ agonist [Leu5]enkephalin.
[4] abbreviates: δ agonist DPDPE, read-out: Ke (nM) against DPDPE.
[5] abbreviates: δ agonist [D-Ala2]deltorphin I, read-out: Ke (nM) against [D-Ala2]deltorphin I.
Where [6] appears, read: δ agonist [Leu5]enkephalin, read-out: Ke (nM) against [Leu5]Enkephalin.

Like-named read-outs stand apart in the source and are kept apart here. Peptide text beside a SMILES is read from it.

The text below walks through data of patent publication US5602099A, “δ opioid receptor antagonists” (Aktiebolaget Astra, priority 1993, dated 1997).

T1 sequence (P32300 whole entry): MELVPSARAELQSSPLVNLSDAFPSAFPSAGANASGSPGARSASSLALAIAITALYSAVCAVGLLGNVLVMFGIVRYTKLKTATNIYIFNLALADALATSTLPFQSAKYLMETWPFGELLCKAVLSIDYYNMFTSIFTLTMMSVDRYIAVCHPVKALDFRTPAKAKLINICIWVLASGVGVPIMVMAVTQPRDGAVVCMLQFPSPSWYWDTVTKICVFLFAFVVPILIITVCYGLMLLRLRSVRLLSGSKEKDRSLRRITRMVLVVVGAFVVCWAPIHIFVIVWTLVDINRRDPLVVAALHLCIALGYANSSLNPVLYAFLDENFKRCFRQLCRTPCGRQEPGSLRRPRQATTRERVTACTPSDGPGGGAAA

`N[C@@H](Cc1ccc(O)cc1)C(=O)N1Cc2ccccc2C[C@H]1CN[C@@H](CCc1ccccc1)C(=O)N[C@@H](Cc1ccccc1)C(=O)O` [HTyrTic.psi.[CH2NH]HfePheOH, H-Tyr-Tic-.PSI.[CH2 --NH]Hfe-Phe-OH]: the Kb reads like this: under setting [1], 2.64 nM; under setting [2], 1.9 nM; under setting [3], 2.22 nM.

`NC(=O)[C@H](CO)NC(=O)[C@@H]1CCCN1C(=O)[C@H](Cc1ccc(O)cc1)NC(=O)[C@H](Cc1ccccc1)NC(=O)[C@H](Cc1c[nH]c2ccccc12)NC(=O)[C@@H]1Cc2ccccc2CN1C(=O)[C@@H](N)Cc1ccc(O)cc1` [HTyrTicTrpPheTyrProSerNH2, H-Tyr-Tic-Trp-Phe-Tyr-Pro-Ser-NH2] (HELM PEPTIDE1{Y.[Tic].W.F.Y.P.S.[am]}$$$$V2.0): the Kb runs as follows: under setting [1], 3.65 nM; under setting [3], 4.2 nM.

With `N[C@@H](Cc1ccc(O)c(F)c1)C(=O)N1Cc2ccccc2C[C@H]1C(=O)N[C@@H](Cc1ccccc1)C(=O)N[C@@H](Cc1ccccc1)C(=O)O` [HTyr(3-F)TicPhePheOH, H-Tyr(3-F)-Tic-Phe-Phe-OH] (HELM PEPTIDE1{[N[C@@H](Cc1ccc(O)c(F)c1)C(=O)[*:2]].[Tic].F.F}$$$$V2.0), the Kb reads like this: under setting [1], 13 nM; under setting [2], 8.73 nM; under setting [3], 5.88 nM.

The compound `O=C(O)[C@H](Cc1ccccc1)NC(=O)[C@H](Cc1ccccc1)NC(=O)[C@@H]1Cc2ccccc2CN1C(=O)[C@H](Cc1ccc(O)cc1)NCC1CC1` [Tyr(N^α Cpm)-TicPhePheOH, Tyr(N^α Cpm)-Tic-Phe-Phe-OH] yielded a Kb under setting [1] of 28.2 nM, a Kb under setting [2] of 32.5 nM and a Kb under setting [3] of 29.6 nM.

On to `N[C@@H](Cc1ccc(O)cc1)C(=O)N1Cc2ccccc2C[C@H]1C(=O)NC1(C(=O)N[C@@H](Cc2ccccc2)C(=O)O)CCc2ccccc2C1` (stereo partly drawn) [HTyrTicAtcPheOH, H-Tyr-Tic-Atc-Phe-OH] (HELM PEPTIDE1{Y.[Tic].[O=C(C1(N[*:1])CCc2ccccc2C1)[*:2]].F}$$$$V2.0), for which the Kb is, setting by setting: under setting [1], 1.85 nM; under setting [2], 0.927 nM; under setting [3], 1.63 nM.

As for `NC(=O)[C@H](CO)NC(=O)[C@@H]1CCCN1C(=O)[C@H](Cc1ccc(O)cc1)NC(=O)[C@H](Cc1ccc([N+](=O)[O-])cc1)NC(=O)[C@H](Cc1c[nH]c2ccccc12)NC(=O)[C@@H]1Cc2ccccc2CN1C(=O)[C@@H](N)Cc1ccc(O)cc1` [HTyrTicTrpPhe(pNO2)TyrProSerNH2, H-Tyr-Tic-Trp-Phe (pNO2) -Tyr-Pro-Ser-NH2] (HELM PEPTIDE1{Y.[Tic].W.[O=C([C@H](Cc1ccc([N+](=O)[O-])cc1)N[*:1])[*:2]].Y.P.S.[am]}$$$$V2.0), the Kb runs as follows: under setting [1], 2.48 nM; under setting [2], 3.91 nM; under setting [3], 3.68 nM.

`N[C@@H](Cc1ccc(O)cc1)C(=O)N1Cc2ccccc2C[C@H]1C(=O)N[C@@H](Cc1ccccc1)C(=O)N[C@@H](Cc1ccc([N+](=O)[O-])cc1)C(=O)O` [HTyrTicPhePhe(pNO2)OH, H-Tyr-Tic-Phe-Phe(pNO2)-OH] (HELM PEPTIDE1{Y.[Tic].F.[O=C(O)[C@H](Cc1ccc([N+](=O)[O-])cc1)N[*:1]]}$$$$V2.0): the Kb is 3.3 nM under setting [1], 2.79 nM under setting [2] and 3.62 nM under setting [3].

In the case of `Cc1cc(O)cc(C)c1C[C@H](N)C(=O)N1Cc2ccccc2C[C@H]1C(=O)N[C@@H](Cc1ccccc1)C(=O)N[C@@H](Cc1ccccc1)C(=O)O` [HDmtTicPhePheOH, H-Dmt-Tic-Phe-Phe-OH] (HELM PEPTIDE1{[Cc1cc(O)cc(C)c1C[C@H](N)C(=O)[*:2]].[Tic].F.F}$$$$V2.0), the Kb is, setting by setting: under setting [4], 0.196 nM; under setting [5], 0.13 nM; under setting [6], 0.169 nM.

Turning to `CCN(CC)[C@@H](Cc1ccc(O)cc1)C(=O)N1Cc2ccccc2C[C@H]1C(=O)N[C@@H](Cc1ccccc1)C(=O)N[C@@H](Cc1ccccc1)C(=O)O` [Tyr(N^α Et2)-TicPhePheOH, Tyr(N^α Et2)-Tic-Phe-Phe-OH], the Kb came to 0.893 nM under setting [1], 2.3 nM under setting [2] and 3.39 nM under setting [3].

Turning to `N[C@@H](Cc1ccc(O)c(Br)c1)C(=O)N1Cc2ccccc2C[C@H]1C(=O)N[C@@H](Cc1ccccc1)C(=O)N[C@@H](Cc1ccccc1)C(=O)O` [HTyr(3-Br)TicPhePheOH, H-Tyr(3-Br)-Tic-Phe-Phe-OH] (HELM PEPTIDE1{[N[C@@H](Cc1ccc(O)c(Br)c1)C(=O)[*:2]].[Tic].F.F}$$$$V2.0), the Kb is, setting by setting: under setting [1], 31.3 nM; under setting [2], 23.9 nM; under setting [3], 18.2 nM.

For `N[C@@H](Cc1ccc(O)cc1)C(=O)N1Cc2ccccc2C[C@H]1C(=O)N[C@@H](Cc1ccccc1)C(=O)N[C@@H](Cc1ccccc1)C(=O)O` [HTyrTicPhePheOH, H-Tyr-Tic-Phe-Phe-OH] (HELM PEPTIDE1{Y.[Tic].F.F}$$$$V2.0), the Kb is, setting by setting: under setting [4], 4.8 nM; under setting [5], 2.96 nM; under setting [6], 5.86 nM.

`N[C@@H](Cc1ccc(O)c(Cl)c1)C(=O)N1Cc2ccccc2C[C@H]1C(=O)N[C@@H](Cc1ccccc1)C(=O)N[C@@H](Cc1ccccc1)C(=O)O` [HTyr(3-Cl)TicPhePheOH, H-Tyr(3-Cl)-Tic-Phe-Phe-OH] (HELM PEPTIDE1{[N[C@@H](Cc1ccc(O)c(Cl)c1)C(=O)[*:2]].[Tic].F.F}$$$$V2.0): the Kb runs as follows: under setting [1], 20.4 nM; under setting [2], 19.9 nM; under setting [3], 18 nM.

Consider `Cc1cc(O)cc(C)c1C[C@H](N)C(=O)N1Cc2ccccc2C[C@H]1C(=O)N[C@@H](Cc1ccccc1)C(=O)N[C@@H](Cc1ccccc1)C(N)=O` [HDmtTicPhePheNH2, H-Dmt-Tic-Phe-Phe-NH2] (HELM PEPTIDE1{[Cc1cc(O)cc(C)c1C[C@H](N)C(=O)[*:2]].[Tic].F.F.[am]}$$$$V2.0), for which the Kb under setting [2] is 0.26 nM, the Kb under setting [3] is 0.221 nM and the Kb under setting [4] was 0.209 nM.

In the case of `N[C@@H](Cc1ccc(O)cc1)C(=O)N1Cc2ccccc2C[C@H]1C(=O)N[C@@H](Cc1c[nH]c2ccccc12)C(=O)N[C@@H](Cc1ccc([N+](=O)[O-])cc1)C(=O)O` [HTyrTicTrpPhe(pNO2)OH, H-Tyr-Tic-Trp-Phe(pNO2)-OH] (HELM PEPTIDE1{Y.[Tic].W.[O=C(O)[C@H](Cc1ccc([N+](=O)[O-])cc1)N[*:1]]}$$$$V2.0), the Kb was 4.4 nM under setting [1], 2.27 nM under setting [2] and 1.83 nM under setting [3].

`N[C@@H](Cc1ccc(O)cc1)C(=O)N1Cc2ccccc2C[C@H]1C(=O)N[C@@H](Cc1c[nH]c2ccccc12)C(=O)O` [HTyrTicTrpOH] (HELM PEPTIDE1{Y.[Tic].W}$$$$V2.0) gave a Kb under setting [1] of 6.23 nM, a Kb under setting [2] of 5.36 nM and a Kb under setting [3] of 10.6 nM.

Consider `CN[C@@H](Cc1ccc(O)cc1)C(=O)N1Cc2ccccc2C[C@H]1CN[C@@H](CCc1ccccc1)C(=O)N[C@@H](Cc1ccccc1)C(=O)O` [Tyr(NMe)-Tic.psi.[CH2NH]HfePheOH, Tyr(NMe)-Tic.PSI.[CH2 --NH]Hfe-Phe-OH], for which the Kb amounted to 0.902 nM under setting [1], 0.418 nM under setting [2] and 0.78 nM under setting [3].

`CCCC[C@H](NC(=O)[C@H](CC(C)C)NC(=O)[C@H](Cc1ccccc1)NC(=O)[C@H](Cc1ccccc1)NC(=O)[C@@H]1Cc2ccccc2CN1C(=O)[C@@H](N)Cc1ccc(O)cc1)C(=O)N[C@@H](CC(=O)O)C(N)=O` [HTyrTicPhePheLeuNleAspNH2, H-Tyr-Tic-Phe-Phe-Leu-Nle-Asp-NH2] (HELM PEPTIDE1{Y.[Tic].F.F.L.[Nle].D.[am]}$$$$V2.0) showed a Kb under setting [1] of 10.4 nM, a Kb under setting [2] of 10.8 nM and a Kb under setting [3] of 21.4 nM.
